A short description of series [1]: Oral bioavailability in C57/BL6 mouse at 30 mg/kg administered as homogeneous suspension in 0.5% methocel/0.25% tween20 in 50 mM acetate buffer (pH 5.5) and measured after 2 hrs by HPLC-MS/MS analysis. The series is classed as ADME, organism-based. The settings on record: in vivo.
Series [2] can be described thus: in vivo. The settings on record: C57BL/6, mouse, iv, 0.2 mg/kg.
Series [3] can be described thus: in vivo. The settings on record: C57BL/6, mouse, iv, 0.2 mg/kg. The source holds these as a separate data set.
Series [4] is described as follows: physchem. The settings on record: PBS buffer, pH 7.4.

≈ marks a conversion by molar mass, not a printed value.

As usually defined, the bioavailability is dose-corrected exposure relative to a reference, in per cent. A high value points to much systemic uptake. By clearance is commonly meant the rate of elimination divided by the concentration. A low value points to inefficient removal. By Vd is commonly meant the apparent volume that relates the amount in the body to the concentration in plasma or blood. Read a low Vd as little distribution into tissue. Broadly, the solubility is how much of the substance goes into solution per volume. Lower therefore signals little dissolved substance.

As for `Cc1cc(C#Cc2ccccc2NS(=O)(=O)c2c(C)ccc3cccnc23)cnc1C(=O)O`, the bioavailability in series [1] came to 45%. In addition, the clearance at 2 h in series [2] is 31.7 mL/min/kg. The Vd at 2 h in series [3] stood at 1.9 L/kg. The amount in solution in series [4] (solubility at 24 h) came to 384 µg/mL (≈ 839 µM).

In series [2], `CCOc1ccc(S(=O)(=O)Nc2ccccc2C#Cc2ccc(C(=O)O)nc2)c2ncccc12` showed a clearance at 2 h of 10 mL/min/kg. Further, in series [3], the distribution volume (Vd) at 2 h amounted to 0.4 L/kg.

`COc1ccc(S(=O)(=O)Nc2ccccc2C#Cc2ccc(C(=O)O)nc2)c2ncccc12` had a clearance at 2 h in series [2] of 6.67 mL/min/kg. Also, the Vd at 2 h in series [3] came out at 0.6 L/kg. Besides, the concentration in solution in series [4] (solubility at 24 h) came to 445 µg/mL (≈ 968 µM).

The record behind these values is ChEMBL document CHEMBL5241094 (J Med Chem, 2021).
